# Patent publication US12583858B2 (Genentech, Inc., priority 2015, dated 2026)
# Target: T1, TDO2 (Homo sapiens, UniProt P48775)
# T1 construct: decreased levels of NFK in SW48 cells (high TDO expressing cells)
# Test: TDO2 cell assay (NFK GreenScreen, SW48 cells)
# Assay type: cell-based
# Conditions: SW48 cells (high TDO expressing), 200 uM tryptophan, 24 hours; Table 3; read-out: TDO2 Cell Fluor EC50
# T1 sequence (P48775 whole entry): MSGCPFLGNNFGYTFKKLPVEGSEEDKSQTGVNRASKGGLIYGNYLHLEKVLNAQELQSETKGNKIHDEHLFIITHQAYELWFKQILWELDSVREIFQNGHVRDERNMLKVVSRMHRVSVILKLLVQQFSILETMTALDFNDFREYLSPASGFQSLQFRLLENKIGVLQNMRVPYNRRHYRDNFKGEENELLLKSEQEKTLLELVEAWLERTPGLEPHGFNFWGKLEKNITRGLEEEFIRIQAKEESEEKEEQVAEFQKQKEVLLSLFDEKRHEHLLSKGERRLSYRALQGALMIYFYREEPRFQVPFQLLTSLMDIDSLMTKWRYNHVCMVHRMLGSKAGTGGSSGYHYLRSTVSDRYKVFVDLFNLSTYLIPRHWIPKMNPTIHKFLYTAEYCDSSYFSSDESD
row,Compound,EC50
1,"OC1(C2c3ccccc3-c3cncn32)CCC1 (single isomer, unassigned) [Example 47b]",> 25 µM
2,"CC(=O)N1CC[C@@H](O)[C@H]([C@@H]2c3ccccc3-c3cncn32)C1 (single isomer, unassigned) [Example 12d]",> 25 µM
3,"NS(=O)(=O)N1CC[C@@H]([C@H]2c3ccccc3-c3cncn32)[C@H](O)C1 [Example 39a, (3S,4S)-3-hydroxy-4-((S)-5H-imidazo[5,1-a]isoindol-5-yl)piperidine-1-sulfonamide]",> 25 µM
4,"O[C@@H]1c2nccnc2CC[C@H]1[C@H]1c2ccccc2-c2cncn21 (single isomer, unassigned) [Example 123a]",24 µM
5,"CS(=O)(=O)N1CCC(O)(C2c3ccccc3-c3cncn32)C1 (single isomer, unassigned) [Example 116c]",> 25 µM
6,"CS(=O)(=O)N1CCC(O)C(C2c3ccccc3-c3cncn32)CC1 (single isomer, unassigned) [Example 92b]",8.6 µM
7,"OC1c2nonc2CCC1C1c2ccccc2-c2cncn21 (single isomer, unassigned) [Example 163e]",6.1 µM
8,"NS(=O)(=O)c1ccc2c(c1)C(O)C(C1c3ccccc3-c3cncn31)CC2 (single isomer, unassigned) [Example 105g]",9.2 µM
9,"CC1(C)CCCC(C)(C2c3ccccc3-c3cncn32)C1O (single isomer, unassigned) [Example 90d]",9.4 µM
10,"OC1c2ccnn2CCCC1C1c2ccccc2-c2cncn21 (single isomer, unassigned) [Example 133d]",> 25 µM
11,"N#Cc1ccc2c(c1)CCC(C1c3ccccc3-c3cncn31)C2O (single isomer, unassigned) [Example 62g]",14 µM
12,"CS(=O)(=O)c1ccc2c(c1)OCC(C1c3ccccc3-c3cncn31)C2O (single isomer, unassigned) [Example 91h]",> 25 µM
13,"OC1CC2(COC2)C1C1c2ccccc2-c2cncn21 (single isomer, unassigned) [Example 87a]",18 µM
14,"CC1(O)CCC1C1c2ccccc2-c2cncn21 (single isomer, unassigned) [Example 35a]",> 25 µM
15,"CS(=O)(=O)N1CCC2(CC1)CC(C1c3ccccc3-c3cncn31)C2O (single isomer, unassigned) [Example 179h]",8.6 µM
16,"Cc1ncc2c(n1)CCC(C1c3ccccc3-c3cncn31)C2O (single isomer, unassigned) [Example 124a]",16 µM

row,Compound,EC50
1,"CCS(=O)(=O)N1CC[C@H]([C@@H]2c3ccccc3-c3cncn32)[C@@H](O)C1 [Example 16b, (3R,4R)-1-(ethylsulfonyl)-4-((R)-5H-imidazo[5,1-a]isoindol-5-yl)piperidin-3-ol]",> 25 µM
2,"Cn1cc2c(n1)CCC(C1c3ccccc3-c3cncn31)C2O (single isomer, unassigned) [Example 130h]",> 25 µM
3,"CC(C)(C)OC(=O)N1CC2(CC(C3c4ccccc4-c4cncn43)C2O)C1 (single isomer, unassigned) [Example 41f, tert-butyl 7-hydroxy-6-(5H-imidazo[1,5-b]isoindol-5-yl)-2-azaspiro[3.3]heptane-2-carboxylate]",17 µM
4,"CCS(=O)(=O)N1CCC2(CC1)CC(C1c3ccccc3-c3cncn31)C2O (single isomer, unassigned) [Example 114c]",15 µM
5,"NC(=O)c1ccc2c(n1)CCC(C1c3ccccc3-c3cncn31)C2O (single isomer, unassigned) [Example 104f]",8.6 µM
6,"CN(C)C(=O)c1ccc2c(c1)CCC(C1c3ccccc3-c3cncn31)C2O (single isomer, unassigned) [Example 98b]",8.7 µM
7,"O[C@H]1c2cccnc2CC[C@@H]1[C@@H]1c2ccc(F)cc2-c2cncn21 (single isomer, unassigned) [Example 169b]",16 µM
8,"CC1(C)CC(O)C1C1c2ccccc2-c2cncn21 (single isomer, unassigned) [Example 22d]",6.9 µM
9,"NS(=O)(=O)N1CC(O)C(C2c3ccccc3-c3cncn32)C1 (single isomer, unassigned) [Example 28a]",> 25 µM
10,"O[C@@H]1c2[nH]ncc2CC[C@H]1[C@@H]1c2ccccc2-c2cncn21 (single isomer, unassigned) [Example 157b]",22 µM
11,"CS(=O)(=O)N1CCC(O)(C2c3ccccc3-c3cncn32)C1 (single isomer, unassigned) [Example 116a]",> 25 µM
12,"OC1CCOCC1C1c2cc(F)ccc2-c2cncn21 (single isomer, unassigned) [Example 75c]",19 µM
13,"CC1(C)C[C@H](O)[C@H]1[C@@H]1c2ccccc2-c2cncn21 [Example 22c, (1S,2R)-2-((R)-5H-imidazo[5,1-a]isoindol-5-yl)-3,3-dimethylcyclobutan-1-ol]",> 25 µM
14,"OC1(C2c3ccccc3-c3cncn32)CCCc2ccncc21 (single isomer, unassigned) [Example 141c]",> 25 µM
15,"CS(=O)(=O)N1CCC(C2c3ccc(F)cc3-c3cncn32)C(O)C1 (single isomer, unassigned) [Example 119a]",> 25 µM

# Stronger by EC50, values ahead:
row,EC50,Compound
1,5.3 µM,"O=S(=O)(C1CC1)N1CC[C@@H]([C@@H]2c3ccccc3-c3cncn32)[C@H](O)C1 (single isomer, unassigned) [Example 81a]"
2,5.1 µM,"NS(=O)(=O)N1CCC(O)C(C2c3ccccc3-c3cncn32)CC1 (single isomer, unassigned) [Example 101b, 4-hydroxy-5-(5H-imidazo[5,1-a]isoindol-5-yl)azepane-1-sulfonamide]"
3,4.2 µM,"N#CC1CCC(O)(C2c3ccccc3-c3cncn32)CC1 (single isomer, unassigned) [Example 145a]"
4,3.8 µM,"OC1(C2c3ccccc3-c3cncn32)CCCc2ccncc21 (single isomer, unassigned) [Example 141b]"
5,3 µM,"N#CCN1CC[C@@H]([C@@H]2c3ccccc3-c3cncn32)[C@H](O)C1 (single isomer, unassigned) [Example 27d]"
6,2.6 µM,"OC1(C2c3ccccc3-c3cncn32)CC(F)(F)C1 (centres unmarked) [Example 50, 3,3-difluoro-1-(5H-imidazo[5,1-a]isoindol-5-yl)cyclobutan-1-ol]"
7,2.2 µM,"OC1CCOCC1C1c2c(F)cccc2-c2cncn21 (single isomer, unassigned) [Example 73b]"
8,1.8 µM,"O[C@@H]1c2cccnc2CC[C@H]1[C@@H]1c2ccccc2-c2cncn21 [Example 31g, (5S,6S)-6-((R)-5H-imidazo[5,1-a]isoindol-5-yl)-5,6,7,8-tetrahydroquinolin-5-ol]"
9,1.4 µM,"CN1CC[C@@H]([C@H]2c3ccccc3-c3cncn32)[C@H](O)C1 [Example 83b, (3S,4S)-4-((S)-5H-imidazo[5,1-a]isoindol-5-yl)-1-methylpiperidin-3-ol]"
10,1.2 µM,"OC1CC2(CCC2)C1C1c2ccccc2-c2cncn21 (single isomer, unassigned) [Example 67a]"
11,1.1 µM,"CC1(C)CCCC(C2c3ccccc3-c3cncn32)C1O (single isomer, unassigned) [Example 24d]"
12,1 µM,"OC1c2cnnn2CCC1C1c2ccccc2-c2cncn21 (single isomer, unassigned) [Example 139b]"
13,0.9 µM,"O[C@H]1COCC[C@H]1[C@H]1c2ccccc2-c2cncn21 [Example 06f, (3R,4S)-4-((S)-5H-imidazo[5,1-a]isoindol-5-yl)tetrahydro-2H-pyran-3-ol]"
14,0.87 µM,"N#Cc1cnc2c(c1)CCC(C1c3ccccc3-c3cncn31)C2O (single isomer, unassigned) [Example 107g]"
15,0.82 µM,"Cc1cc2c(cn1)[C@H](O)[C@H]([C@@H]1c3ccccc3-c3cncn31)C2 [Example 59b, (6S,7R)-6-((R)-5H-imidazo[5,1-a]isoindol-5-yl)-3-methyl-6,7-dihydro-5H-cyclopenta[c]pyridin-7-ol]"
16,0.54 µM,"Nc1ncc2c(n1)CCC(C1c3ccccc3-c3cncn31)C2O (single isomer, unassigned) [Example 111a]"
17,0.51 µM,"NS(=O)(=O)c1ccc2c(c1)C(O)C(C1c3ccccc3-c3cncn31)CC2 (single isomer, unassigned) [Example 105h]"
18,0.43 µM,"OC1c2cc(C(F)F)nn2CCC1C1c2ccccc2-c2cncn21 (single isomer, unassigned) [Example 173b]"
19,0.36 µM,"OC1c2cccn2CC[C@H]1C1c2ccccc2-c2cncn21 (stereo in doubt) [Example 136f, (7S,8S)-7-((R)-5H-imidazo[5,1-a]isoindol-5-yl)-5,6,7,8-tetrahydroindolizin-8-ol]"
20,0.36 µM,"N#CCN1CCC(O)C(C2c3ccccc3-c3cncn32)C1 (single isomer, unassigned) [Example 14a]"
21,0.34 µM,"OC1CCCC1C1c2ccccc2-c2cncn21 (single isomer, unassigned) [Example 02g]"
22,0.34 µM,"OC1CCOCC1C1c2c(F)cccc2-c2cncn21 (single isomer, unassigned) [Example 73c]"
23,0.33 µM,"CC(C)(C(N)=O)[C@@H](O)[C@H]1c2ccccc2-c2cncn21 [Example 155a, (R)-3-hydroxy-3-((R)-5H-imidazo[5,1-a]isoindol-5-yl)-2,2-dimethylpropanamide]"
24,0.19 µM,"CC1(C)COCC(C2c3ccccc3-c3cncn32)C1O (single isomer, unassigned) [Example 66b]"
25,0.14 µM,"CC1(C)OCC(C2c3ccccc3-c3cncn32)C1O (single isomer, unassigned) [Example 85g]"
26,0.082 µM,"OC1c2cccnc2CCC1C1c2ccccc2-c2cncn21 (single isomer, unassigned) [Example 31f]"
27,0.061 µM,"O[C@@H]1c2ncccc2CC[C@H]1[C@H]1c2ccccc2-c2cncn21 [Example 63a, (7S,8S)-7-((S)-5H-imidazo[5,1-a]isoindol-5-yl)-5,6,7,8-tetrahydroquinolin-8-ol]"
28,0.032 µM,"O[C@@H]1c2ccccc2CC[C@H]1[C@H]1c2ccccc2-c2cncn21 [Example 102e, (1S,2S)-2-((S)-5H-imidazo[5,1-a]isoindol-5-yl)-1,2,3,4-tetrahydronaphthalen-1-ol]"
